Laboratory results published in patent US8686190B2, “Bis-aromatic anticancer agents” (The UAB Research Foundation, priority 2008, dated 2014).

Legend:
MIA PaCa-2 = test: Cytotoxicity screening, MIA PaCa-2 cells; type: cell-based; conditions: Homo sapiens; for inhibition at 10 µM: treatment at 10 μM, 24 h treatment then 96 h incubation; for IC50: read-out: IC50, drug dose to inhibit 50% cell proliferation
Experimental: (§1) Tumor cells were maintained as monolayers in 75-cm^2 tissue culture flasks using their respective cell culture medium containing 10% fetal bovine serum and 2 mM L-glutamine. The cells were incubated at 37° C. under a humidified 5% CO2: air atmosphere (standard conditions) for five days. The cells were harvested when in mid-log growth and their concentration was determined using a particle counter (Beckman Coulter, Inc, Fullerton, Calif.). An aliquot of the cell suspension was diluted in culture medium for delivery to a 24-well tissue culture plate at a range of 10,000 to 30,000 per 1 mL per well. After 24 h, quadruplicate wells were inoculated with either vehicle (untreated controls) or test compounds at various concentrations. After 24 h of incubation, the wells were aspirated, washed once with 1 mL PBS, and refilled with 1 mL treatment-free medium. Following a 96-h incubation under the initial treatment conditions, the viable cells were counted and the numbers were normalized to the percent of untreated controls. The extent of cytotoxicity in treated wells as compared to the controls and the dose that inhibits 50% cell proliferation (IC50) was calculated.

Panc-1 = test: Cytotoxicity screening, Panc-1 cells; type: cell-based; conditions: Homo sapiens; for inhibition at 10 µM: Panc-1, treatment at 10 μM, 24 h treatment then 96 h incubation, read-out: Inhibition: percent cell death normalized against controls
Experimental: as §1

PC-3 = test: Cytotoxicity screening, PC-3 cells; type: cell-based; conditions: Homo sapiens; for inhibition at 10 µM: treatment at 10 μM, 24 h treatment then 96 h incubation, read-out: Inhibition: percent cell death normalized against controls; for IC50: read-out: IC50, drug dose to inhibit 50% cell proliferation
Experimental: as §1

LS174-T = test: Cytotoxicity screening, LS174-T cells; type: cell-based; conditions: Homo sapiens, LS174T; for inhibition at 10 µM: treatment at 10 μM, 24 h treatment then 96 h incubation; for IC50: read-out: IC50, drug dose to inhibit 50% cell proliferation
Experimental: as §1

[1] = tested on: LS174-T human colon carcinoma tumors; test: Evaluation of antitumor activity, nude mouse model of LS174-T tumors; type: in vivo; conditions: female nude mice, sc LS174-T tumors, iv qdx5; untreated control 15 days; n=8, p=0.043
Experimental: Antitumor activity of compound II-e was evaluated using a nude mouse model of Ls174-T human colon cancer tumors. Female nude mice were implanted subcutaneously (sc) with LS174-T human colon carcinoma cells (10^7 cells/mouse). When tumors reached a cross diameter of 7 mm, the mice were randomized into 2×8 groups and were injected iv with either the vehicle (5% dextrose solution containing 20% 50:50, Cremophore EL: ethanol)) or a solution II-e in the same solvent system. The protocol used was qdx5 injections every 24 h. Tumor volumes were monitored by caliper measurement 3× weekly (see FIG. 1 wherein circles correspond to inactivated compound IIe; triangles correspond to vehicle; and squares correspond to compound II-e).

[2] = read-out: Inhibition: percent cell death normalized against controls
[3] = measured at 7.5 μM, read-out: Inhibition: percent cell death normalized against controls

Row | Compound | inhibition at 10 µM (MIA PaCa-2; [2]) [%] | inhibition at 10 µM (Panc-1) [%] | inhibition at 10 µM (PC-3) [%] | inhibition at 10 µM (LS174-T; [2]) [%] | IC50 (Panc-1; PANC-1, read-out: IC50, drug dose to inhibit 50% cell proliferation) [µM] | Tumor doubling time [1] [days] | inhibition at 7.5 µM (MIA PaCa-2; [3]) [%] | IC50 (MIA PaCa-2) [µM] | IC50 (PC-3) [µM] | inhibition at 7.5 µM (LS174-T; [3]) [%] | IC50 (LS174-T) [µM]
1 | CC(=O)C(CSCC(C(C)=O)c1cc(C(F)(F)F)cc(C(F)(F)F)c1)c1cc(C(F)(F)F)cc(C(F)(F)F)c1 (stereo not shown) [II-e bis-OAc, 4,4′-thiobis(3-(3,5-bis(trifluoromethyl)phenyl)butan-2-one)] | 29 ± 6 | – | – | – | – | – | – | – | – | – | –
2 | OC(CSCC(O)c1ccc(OC(F)(F)F)cc1)c1ccc(OC(F)(F)F)cc1 (stereo not shown) [II-c] | 34 ± 14 | 43 ± 9 | 40 ± 7 | 13 ± 7 | – | – | – | – | – | – | –
3 | COc1cccc(C(O)CSCC(O)c2cccc(OC)c2OC)c1OC (stereo not shown) [II-b] | 0 | 0 | 8 ± 4 | 0 | – | – | – | – | – | – | –
4 | OC(CSCC(O)c1ccccc1)c1ccccc1 (stereo not shown) [II-a] | – | – | 5 ± 9 | – | – | – | – | – | – | – | –
5 | OC(CSCC(O)c1cc(C(F)(F)F)cc(C(F)(F)F)c1)c1cc(C(F)(F)F)cc(C(F)(F)F)c1 (stereo not shown) [II-e] | 94 ± 2 | 80 ± 4 | 78 ± 4 | 96 | 6.3 | 30 | 94 ± 2 | 3.7 | 4.4 | 96 ± 1 | 3.6
6 | OC(CSCC(O)c1ccc(C(F)(F)F)cc1)c1ccc(C(F)(F)F)cc1 (stereo not shown) [II-d] | 11 ± 4 | 27 ± 5 | 43 ± 4 | 33 ± 6 | – | – | – | – | – | – | –
7 | COc1cc(/C=C/C(=O)CC(=O)/C=C/c2ccc(O)c(OC)c2)ccc1O [curcumin, reference compound] | – | – | – | – | – | – | – | 9 | 12 | – | 6.5
